The source of these data is patent US20150184166A1 (Uinversity of Iowa Research Foundation, priority 2012, published 2015).

Usually Km stands for the concentration of substrate that gives half-maximal velocity.

In one data set the target is T1, NdmA-His6 (Pseudomonas putida, UniProt H9N289).
T1 sequence (H9N289 1-351): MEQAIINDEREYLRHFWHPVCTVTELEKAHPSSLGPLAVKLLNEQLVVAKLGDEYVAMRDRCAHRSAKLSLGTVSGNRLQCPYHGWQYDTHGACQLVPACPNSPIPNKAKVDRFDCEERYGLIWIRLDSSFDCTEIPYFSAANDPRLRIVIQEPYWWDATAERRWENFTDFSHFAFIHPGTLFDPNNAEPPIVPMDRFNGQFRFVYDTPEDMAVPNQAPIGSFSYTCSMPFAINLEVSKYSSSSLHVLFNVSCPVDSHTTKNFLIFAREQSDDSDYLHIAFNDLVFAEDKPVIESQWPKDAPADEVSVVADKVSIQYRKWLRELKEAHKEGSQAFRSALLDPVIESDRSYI
In words: Kinetic parameters of NdmA-His6 with His6-NdmD. In kind it is biochemical, Pseudomonas putida CBB5. The procedure: (§1) Methylxanthine N-demethylase activity assay contained, in 1-ml total volume, 0.5 mM methylxanthine, 1 mM NADH, 50 μM Fe(NH4)2(SO4)2, and an appropriate amount of NdmA-His6 or NdmB-His6 (7.4 μg-2.5 mg protein depending on substrate specificity) in 50 mM KPi buffer (pH 7.5). Approximately 4 U of partially purified reductase, prepared as described previously (Summers et al., 2011) or 59 U of purified His6-NdmD was added to reaction mixture. Catalase from bovine liver (4,000 U) was also added to reactions containing His6-NdmD. The reaction mixture was incubated at 30° C. with 300 rpm shaking on an incubating microplate shaker (VWR, Radnor, Pa.). Periodically, a small aliquot was sampled from the reaction mixture and mixed with equal volume of acetonitrile for quantifying concentrations of methylxanthines and N-demethylated products by HPLC. One unit of N-demethylase activity was defined as the consumption of one […] methylxanthine per minute.
(§2) Apparent kinetic parameters of NdmA-His6 and NdmB-His6 were determined by measuring the initial rate of disappearance (vo) of methylxanthines in 50 mM KPi buffer (pH 7.5) at 30° C. The initial substrate concentrations ([S]) used in these experiments were from 25 to 500 μM. Substrates were incubated with His6-NdmD plus either NdmA-His6 or NdmB-His6 under standard conditions for 15 minutes. At 1, 5, 10, and 15 minutes, samples were removed from the reaction mixtures to quantitate substrate concentrations by HPLC. Plots of substrate concentrations against time were used to determine the initial rates of disappearance of substrates which were linear over 15 minutes. The apparent kinetic parameters were determined from Michaelis-Menten plots of vo against [S] fitted with the equation

A further data set deals with NdmB-His6 (Pseudomonas putida, UniProt H9N290). In words: Kinetic parameters of NdmB-His6 with His6-NdmD. Type of data set: biochemical, Pseudomonas putida CBB5. How it is done:
as §1, §2

A further data set relates to NdmC. Nature of the data set: N-demethylation by NdmC fraction co-purified with reductase. In kind it is biochemical, Pseudomonas putida CBB5. The text has this:
This activity was neither associated with NdmA nor with NdmB. […] Cloning of NdmC has proven difficult; nevertheless based on the fact that purified His6-NdmD had no activity on 7-methylxanthine, we annotate orf 8 as aanother RO with highly specific N-7 demthylase activity.

The target of another data set is His6-NdmD (Pseudomonas putida, UniProt H9N291). In words: N-demethylation by purified His6-NdmD alone. Type of data set: biochemical, Pseudomonas putida CBB5. How it is done: as §1
Data set [1] has as its system Ndm (methylxanthine N-demethylase) with Ccr reductase.
Another data set concerns the target Ccr (Pseudomonas putida, UniProt H9N291). Nature of the data set: NAD(P)H:cytochrome c oxidoreductase (Ccr) activity. In kind it is biochemical, Pseudomonas putida CBB5. The procedure:
NADH:cytochrome c oxidoreductase (cytochrome c reductase, Ccr) activity was determined as described by Ueda et al. (1972). A typical 1-mL reaction contained 300 μM NADH, 87 μM bovine cytochrome c (type III; Sigma), and 1-20 μg CBB5 protein (depending on purity) in 50 mM KPi buffer. The activity was determined by monitoring the increase in absorbance at 550 nm due to reduction of […] cytochrome c at 30° C. An extinction coefficient of 21,000 M^−1 cm^−1 for reduced minus oxidized cytochrome c was used for quantitating the activity. One unit of activity was defined as one μmol of cytochrome c reduced per minute.

Data set [2] deals with T2, Ndm, two-subunit N-demethylase component purified from Pseudomonas putida CBB5 (UniProt H9N289).
T2 sequence 1: T1 sequence (H9N289 1-351)
T2 sequence 2: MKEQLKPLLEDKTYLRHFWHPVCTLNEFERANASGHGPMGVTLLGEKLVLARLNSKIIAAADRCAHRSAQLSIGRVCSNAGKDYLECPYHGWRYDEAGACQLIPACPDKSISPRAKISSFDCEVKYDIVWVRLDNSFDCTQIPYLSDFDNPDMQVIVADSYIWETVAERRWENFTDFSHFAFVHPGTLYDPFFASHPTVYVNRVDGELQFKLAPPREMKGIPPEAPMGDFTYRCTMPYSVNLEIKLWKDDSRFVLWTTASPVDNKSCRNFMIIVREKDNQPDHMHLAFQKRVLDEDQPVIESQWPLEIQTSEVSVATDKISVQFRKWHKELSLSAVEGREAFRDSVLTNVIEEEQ

A further data set concerns the target T3, NdmA-His6, H9N289.
T3 chain: T1 sequence (H9N289 1-351)

The target of the next data set is T4, NdmB-His6, H9N290.
T4 chain: T2 sequence 2

Substrate in data set [3]: Cn1c(=O)c2[nH]cnc2n(C)c1=O
In words: Kinetic parameters of NdmA-His6 with His6-NdmD. Type of data set: biochemical, Pseudomonas putida CBB5. To be noted: other: NdmA-His6 plus His6-NdmD, pH 7.5, 30° C. How it is done:
as §1
Apparent kinetic parameters of NdmA-His6 and NdmB-His6 were determined by measuring the initial rate of disappearance (vo) of methylxanthines in 50 mM KPi buffer (pH 7.5) at 30° C. […] At 1, 5, 10, and 15 minutes, samples were removed from the reaction mixtures to quantitate substrate concentrations by HPLC. […] The apparent kinetic parameters were determined from Michaelis-Menten plots of vo against [S] fitted with the equation

Data set [4] deals with T5, NdmB, 35 kDa subunit of N-demethylase Ndm purified from Pseudomonas putida CBB5 (Pseudomonas putida CBB5, UniProt H9N290 1-355).
T5 construct: Native protein purified from CBB5; Rieske [2Fe-2S] non-heme iron oxygenase; also called 35 kDa-protein
T5 sequence (looked up): T2 sequence 2
Nature of the data set: gel filtration of purified native Ndm (single symmetric peak, about 240 kDa), fractions checked by SDS-PAGE. On the technique in general: SEC sorts molecules by how far they enter the pores of the column.

Consider `Cn1cnc2[nH]c(=O)[nH]c(=O)c21` [7-Methylxanthine, 7-methylxanthine], for which the “N-demethylation activity of NdmA” value on NdmA-His6 is “inactive”. The Km result at NdmA-His6 (NdmA-His6 plus His6-NdmD, pH 7.5, 30° C.) was “∞”; at NdmB-His6 (NdmB-His6 plus His6-NdmD, pH 7.5, 30° C.), “∞”; in data set [1] (read-out: apparent KM, saturating Ccr, 50 μM Fe2+, 30° C., 50 mM KPi pH 7.5) it was 63.8 ± 7.5 µM. In addition, on NdmB-His6, the “N-demethylation activity of NdmB” value is “no activity”. The “N-demethylation by NdmC/reductase fraction” value in the data set on NdmC is reported as “specifically N-demethylated”. Besides, the “activity of purified His6-NdmD” value at His6-NdmD is reported as “no activity”. In data set [1] (90 minutes, 7.4 mU (7.4 units) of Ndm), the “product formed from paraxanthine” value was 126.9 ± 6.4 µM. Moreover, the N-demethylation product present entry in data set [1] (from paraxanthine, after 13 minutes) is listed as “Approximately 39.9 μM”. Moreover, the apparent kcat in [1] (saturating Ccr, 50 μM Fe2+, 30° C., 50 mM KPi pH 7.5) turned out to be 1.58 ± 0.05 s⁻¹.
Take `NC(=O)C1=CN([C@@H]2O[C@H](COP(=O)(O)OP(=O)(O)OC[C@H]3O[C@@H](n4cnc5c(N)ncnc54)[C@H](OP(=O)(O)O)[C@@H]3O)[C@@H](O)[C@H]2O)C=CC1` [NADPH]: on Ccr, the “Ccr activity relative to that with NADH” value turned out to be 22%.
Take “Ccr, partially purified cytochrome c reductase component of Pseudomonas putida CBB5”: the N-demethylase activity entry in data set [2] is on record as “No N-demethylase activity was observed when purified Ndm was assayed without the Ccr fraction”.

B1: His6-NdmD (protein)
chain: HHHHHHSSGLVPRGSHMNKLDVNQWFPIATTEDLPKRHVFHATLLGQEMAIWRDDSGSVNAWENRCPHRGLRLTLGANTGNELRCQYHGWTYESGTGGCTFVPAHRDAPPPNAARVNTFPVREKHGFIWTTLGQPPGEPISILDDAQLVNAVKTNLHSVVIDADIDGVVSVLRQNLSAFIDVFGAASAEDLHLKSMLQDRGILVTRSGSIAIHFYMQRSTISKCVVHAQVLTPGRPGYELQKNYSYAMNVIRRAAEAVATDLISITDISDQTIEKLEVVRENMTKAPPTHYICEVVTRTQETGDINSYWLKPIGYPLPAFSPGMHISITTPEGSIRQYSLVNGPDERESFIIGVKKEIQSRGGSRSMHEDVKVGTQLKVTLPRNGFPLVQTRKHPILVAGGIGITPILCMAQALDQQGSSYEIHYFARAFEHVPFQDRLTALGDRLNVHLGLGPDETRAKLPDIMEIHNAQDVDVYTCGPQPMIETVSAVALAHGIAEESIRFEFFSKKNDVPVSDEEYEVELKKTGQIFTVSPGSTLLQACLDNDVRIEASCEQGVCGTCITPVVSGDLEHHDTYLSKKERESGKWIMPCVSRCKSKKIVLDL
Regarding B1, in the data set with NdmA-His6, H9N289, the “N-demethylation of caffeine to theobromine (HPLC)” value was “when NdmA-His6 was incubated with His6-NdmD, caffeine, NADH, and exogenous Fe^2+, caffeine was stoichiometrically demethylated at N1 to theobromine”. Moreover, the “N-demethylation of theobromine to 7-methylxanthine (HPLC)” value in the data set with NdmB-His6, H9N290 was “NdmB-His6 with His6-NdmD, theobromine, NADH, and Fe^2+ resulted in stoichiometric demethylation at N3 of theobromine to 7-methylxanthine”.

B2: NdmA, 40 kDa subunit of N-demethylase Ndm purified from Pseudomonas putida CBB5 (enzyme, UniProt H9N289 1-351, looked up)
chain: T1 sequence (H9N289 1-351)
notes: Native protein purified from CBB5; Rieske [2Fe-2S] non-heme iron oxygenase; also called 40 kDa-protein
Regarding B2, the Km in [3] is on record as 91. μM. The binding result in data set [4] is given as “binds”.
